Source: patent publication US10005731B2, “Modulators of the retinoid-related orphan receptor gamma (ROR-gamma) for use in the treatment of autoimmune and inflammatory diseases” (Glaxo Group Limited, priority 2012, dated 2018)
Structures can show the parent of a compound that is named as a salt. Where two headings read alike, the source gives them in different places.

How the values were obtained:
[1] = target: T1, Human RORγ Ligand Binding Domain (RORγ-LBD) (Homo sapiens, UniProt P51449); assay: Dual Fluorescence Energy Transfer (FRET) assay, RORγ-LBD / SRC1(2) co-activator peptide interaction; assay type: biochemical; conditions: mean of multiple test results if tested more than once; read-out: pIC50 in the dual FRET assay (converted)
T1 construct: made in house; host or cells: E. coli BL21(DE3), modified pET21a
T1 sequence (P51449 263-518): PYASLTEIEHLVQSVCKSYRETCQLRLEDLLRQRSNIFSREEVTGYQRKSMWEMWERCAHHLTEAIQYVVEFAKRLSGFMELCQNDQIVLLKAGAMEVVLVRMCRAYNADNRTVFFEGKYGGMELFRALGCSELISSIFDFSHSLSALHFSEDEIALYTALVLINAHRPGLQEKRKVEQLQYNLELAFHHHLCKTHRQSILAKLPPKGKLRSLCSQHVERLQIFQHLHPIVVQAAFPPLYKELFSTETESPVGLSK
Description: This assay is based on the knowledge that nuclear receptors interact with cofactors (transcription factors) in a ligand dependent manner. RORγ is a typical nuclear receptor in that it has an AF2 domain in the ligand binding domain (LBD) which interacts with co-activators.
The assay measures ligand-mediated interaction of the co-activator peptide with the purified bacterial-expressed RORγ ligand binding domain (RORγ-LBD) to indirectly assess ligand binding. RORγ has a basal level of interaction with the co-activator SRC1(2) in the absence of ligand, thus it is possible to find ligands that inhibit or enhance the RORγ/SRC1(2) interaction.
Human RORγ Ligand Binding Domain (RORγ-LBD) was expressed in E.coli strain BL21(DE3) as an amino-terminal polyhistidine tagged fusion protein. DNA encoding this recombinant protein was sub-cloned into a modified pET21a expression vector (Novagen).
Approximately 50 g E. coli cell pellet was resuspended in 300 mL of lysis buffer (30 mM imidazole pH 7.0 and 150 mM NaCl). Cells were lysed by sonication and cell debris was removed by centrifugation for 30 minutes at 20,000 g at 4° C. […] The clarified lysate was loaded onto a column (XK-26) packed with ProBond Nickel Chelating resin (Invitrogen), pre-equilibrated with 30 mM imidazole pH 7.0 and 150 mM NaCl. After washing to baseline absorbance with the equilibration buffer, the column was developed with a gradient from 30 to 500 mM imidazole pH 7.0. Column fractions containing the RORγ-LBD protein were pooled and concentrated to a volume of 5 mls. The concentrated protein was loaded onto a Superdex 200 column pre-equilibrated with 20 mM Tris-CI pH 7.2 and 200 mM NaCl. The fractions containing the desired RORγ-LBD protein were pooled together.
Purified RORγ-LBD was buffer exchanged by exhaustive dialysis [3 changes of at least 20 volumes (>8000x)] against PBS [100mM NaPhosphate, pH 8 and 150mM NaC1]. […] The modified protein was distributed into aliquots, frozen on dry ice and stored at −80° C. The biotinylated RORγ-LBD was subjected to mass spectrometric analysis to reveal the extent of modification by the biotinylation reagent.
An appropriate amount of Europium labeled Streptavidin was then added to the biotinylated SRC1(2) solution in a tube to give a final concentration of 10 nM. The tube was inverted gently and incubated for 15 minutes at room temperature. Twenty-fold excess biotin from the 10 mM stock solution was added and the tube was inverted gently and incubated for 10 minutes at room temperature.
Preparation of APC labeled RORγ-LBD: biotinylated RORγ-LBD solution was prepared by adding an appropriate amount of biotinylated RORγ-LBD from the stock solution to a buffer containing 10 mM of freshly added DTT from solid to give a final concentration of 40 nM. An appropriate amount of APC labeled Streptavidin was then added to the biotinylated RORγ-LBD solution in a tube to give a final concentration of 20 nM. The tube was inverted gently and incubated for 15 minutes at room temperature. Twenty-fold excess biotin from the 10 mM stock solution was then added and the tube was inverted gently and incubated for 10 minutes at room temperature.
The reaction mixtures were incubated for 5 minutes. […] The plates were incubated for lhr and then read on ViewLux in Lance mode for EU/APC.

Mouse CD4+ cells = assay: Th17 cell differentiation assay (IL-17 ELISA); assay type: cell-based
Method: Mouse CD4+cells were purified using the CD4+ T Cell Isolation II Kit according to manufacturer's instructions (Miltenyi Biotec). 96 well plates were pre-coated with anti-mCD3 antibody. Un-coated wells were used as controls. CD4+ Cells were resuspended in RPMI 1640 complete medium and were added to the 96-well plates. Cytokine cocktail and the compound were then added to the wells. Antibodies and cytokines (all from R&D Systems) used in the assay were selected from the following: anti-mCD3; anti-mCD28; anti-mIFNγ; anti-mIL4; mIL-6; mIL-23; mIL-1β; hTGF-β1. The culture was incubated at 37° C. for 3 days and supernatants were collected for ELISA. The IL-17 ELISAs were performed according to manufacturer's instructions (R&D Systems). The results were analyzed using Prism software with non-linear regression to determine pIC50.

[2] = tested on: Experimental Autoimmune Encephalomyelitis (EAE); assay: EAE studies (Experimental Autoimmune Encephalomyelitis); assay type: in vivo, mice of the C57BL/6 (B6) strain; conditions: orally twice a day from day 0; for EAE onset and clinical score: effect starting at 3, 10 or 30 mg/kg; for EAE onset: 30 mg/kg
[3] = In vitro percutaneous study (Franz diffusion cells, aqueous cream); assay type: in vitro ADME, human; conditions: 1.0% w/w in aqueous cream pH=6, 5 mg/cm^2, human skin from three donors
Description: The in vitro percutaneous study is aimed to predict the level of percutaneous penetration obtained for a compound in a topical formulation for psoriasis. This assay coupled with the intrinsic potency of the compound are used to predict the likelihood of success of a compound to engage the target. The higher the ratio of the percutaneous penetration to the intrinsic potency, the higher the ratio of local skin concentration to the intrinsic potency and therefore the higher the chance of a compound to engage the target in a topical formulation.
The compounds were manufactured in a modified aqueous cream at pH=6.
The study was conducted with dermatomed abdominal human skin sourced from three skin donors using 2 cm2 Franz diffusion cells. The receiving fluid consisted of Bovine serum albumin (4% w/v) in 0.1% w/v sodium azide in Phospate Buffer Saline and was heated at 37° C. in order to obtain 32° C. at the skin surface. The cream formulation was applied on the donor side at a 10 mg dose, i.e. 5 mg/cm^2. The samples taken at the following time points: t=0, 3, 6, 9 and 24 h. The receiver samples were then assayed using a method based upon protein precipitation with acetonitrile followed by LC/MS/MS analysis. The percutaneous flux (in ng/cm^2/hr) was determined using the individual API (in a multiple composition) that had permeated into the receiver compartment over 24 hrs per cm^2.

[4] = 72 h, mean pIC50, IL-17 ELISA, 3 days culture, detection limit of the assay 5, read-out: pIC50 in the Th17 cell differentiation assay (converted)

IC50 [1] | IC50 (Mouse CD4+ cells; [4]) | Structure (SMILES) | other results
~0.1 µM | ~0.0316 µM | Cc1ncc(C(=O)Nc2cc(F)cc(CN3CCN(C(=O)C4CCCC4)[C@@H](C)C3)c2C)cn1 [Example 20, (S)-N-(3-((4-(cyclopentanecarbonyl)-3-methylpiperazin-1-yl)methyl)-5-fluoro-2-methylphenyl)-2-methylpyrimidine-5-carboxamide] | EAE onset and clinical score [2]: delay EAE onset and lower clinical score
~0.2 µM | ~0.0832 µM | Cc1ccc(C(=O)Nc2cc(Cl)cc(CN3CCN(C(=O)CC4CC4)[C@@H](C)C3)c2C)cn1 [Example 184, (S)-N-(5-chloro-3-((4-(2-cyclopropylacetyl)-3-methylpiperazin-1-yl)methyl)-2-methylphenyl)-6-methylnicotinamide] | EAE onset and clinical score [2]: delay EAE onset and lower clinical score
~0.0794 µM | ~0.0209 µM | Cc1ccc(C(=O)Nc2cc(F)cc(CN3CCN(C(=O)[C@H]4C[C@@H](C)C4)[C@@H](C)C3)c2C)cn1 [Example 185, N-(5-fluoro-2-methyl-3-(((S)-3-methyl-4-((cis)-3-methylcyclobutanecarbonyl)piperazin-1-yl)methyl)phenyl)-6-methylnicotinamide] | 
~0.0794 µM | ~0.0372 µM | Cc1ccc(C(=O)Nc2cc(F)cc(CN3CCN(C(=O)[C@H]4C[C@H](C)C4)[C@@H](C)C3)c2C)cn1 [Example 186, N-(5-fluoro-2-methyl-3-(((S)-3-methyl-4-((trans)-3-methylcyclobutanecarbonyl)piperazin-1-yl)methyl)phenyl)-6-methylnicotinamide] | 
~0.0631 µM | ~0.00871 µM | Cc1ccc(C(=O)Nc2cc(Cl)cc(CN3CCN(C(=O)[C@H]4C[C@H](C)C4)[C@@H](C)C3)c2C)cn1 [Example 188, N-(5-chloro-2-methyl-3-(((S)-3-methyl-4-((trans)-3-methylcyclobutanecarbonyl)piperazin-1-yl)methyl)phenyl)-6-methylnicotinamide] | 
~0.0501 µM | ~0.00513 µM | Cc1ccc(C(=O)Nc2cc(Cl)cc(CN3CCN(C(=O)[C@H]4C[C@@H](C)C4)[C@@H](C)C3)c2C)cn1 [Example 189, N-(5-chloro-2-methyl-3-(((S)-3-methyl-4-((cis)-3-methylcyclobutanecarbonyl)piperazin-1-yl)methyl)phenyl)-6-methylnicotinamide] | 

The remaining lines, values behind:

Structure (SMILES) | IC50 [1] | IC50 (Mouse CD4+ cells; [4]) | other results
Cc1ccc(C(=O)Nc2cc(Cl)cc(CN3CCN(C(=O)C4CCCC4)[C@@H](C)C3)c2C)cn1 [Example 62, (S)-N-(5-chloro-3-((4-(cyclopentanecarbonyl)-3-methylpiperazin-1-yl)methyl)-2-methylphenyl)-6-methylnicotinamide] |  |  | EAE onset [2]: delay EAE onset
Cc1c(NC(=O)c2ccc[nH]c2=O)ccc(F)c1CN1CCN(C(=O)C2CCCC2)[C@@H](C)C1 [Example 129, (S)-N-(3-((4-(cyclopentanecarbonyl)-3-methylpiperazin-1-yl)methyl)-4-fluoro-2-methylphenyl)-2-oxo-1,2-dihydropyridine-3-carboxamide, trifluoroacetic acid salt] |  | > 10 µM | 
Cc1ccc(C(=O)Nc2cc(F)cc(CN3CCN(C(=O)CC4CCC4)[C@@H](C)C3)c2C)cn1 [Example 163, (S)-N-(3-((4-(2-cyclobutylacetyl)-3-methylpiperazin-1-yl)methyl)-5-fluoro-2-methylphenyl)-6-methylnicotinamide] |  |  | IC50 (Mouse CD4+ cells; table with percutaneous study, read-out: Th17 cell differentiation assay IC50): 0.0114 µg/mL; IC50 (Mouse CD4+ cells; table with percutaneous study, read-out: Th17 cell differentiation assay pIC50 (converted)): 0.0251 µM; Flux over 24 hrs [3]: 7.73 ng/cm^2/hr
Cc1c(CN2CCN(C(=O)C3CC(F)(F)C3)[C@@H](C)C2)cc(F)cc1NC(=O)c1cccc(C#N)c1 [Example 175, (S)-3-cyano-N-(3-((4-(3,3-difluorocyclobutanecarbonyl)-3-methylpiperazin-1-yl)methyl)-5-fluoro-2-methylphenyl)benzamide, trifluoroacetic acid salt] |  |  | EAE onset and clinical score [2]: delay EAE onset and lower clinical score
Cc1cc(C(=O)Nc2cc(Cl)cc(CN3CCN(C(=O)C4CCCC4)[C@@H](C)C3)c2C)ccn1 [Example 187, (S)-N-(5-chloro-3-((4-(cyclopentanecarbonyl)-3-methylpiperazin-1-yl)methyl)-2-methylphenyl)-2-methylisonicotinamide] | ~0.126 µM | ~0.00316 µM | 
Cc1ncc(C(=O)Nc2cc(Cl)cc(CN3CCN(C(=O)[C@H]4C[C@@H](C)C4)[C@@H](C)C3)c2C)cn1 [Example 190, N-(5-chloro-2-methyl-3-(((S)-3-methyl-4-((cis)-3-methylcyclobutanecarbonyl)piperazin-1-yl)methyl)phenyl)-2-methylpyrimidine-5-carboxamide, trifluoroacetic acid salt] | ~0.158 µM | ~0.0129 µM | EAE onset [2]: delay EAE onset
Cc1ncc(C(=O)Nc2cc(Cl)cc(CN3CCN(C(=O)[C@H]4C[C@H](C)C4)[C@@H](C)C3)c2C)cn1 [Example 191, N-(5-chloro-2-methyl-3-(((S)-3-methyl-4-((trans)-3-methylcyclobutanecarbonyl)piperazin-1-yl)methyl)phenyl)-2-methylpyrimidine-5-carboxamide, trifluoroacetic acid salt] | ~0.251 µM | ~0.0263 µM | EAE onset [2]: delay EAE onset
Cc1ncc(C(=O)Nc2cc(Cl)cc(CN3CCN(C(=O)C4CCCC4)[C@@H](C)C3)c2C)cn1 [Example 192, (S)-N-(5-chloro-3-((4-(cyclopentanecarbonyl)-3-methylpiperazin-1-yl)methyl)-2-methylphenyl)-2-methylpyrimidine-5-carboxamide] |  | ~0.00794 µM | EAE onset and clinical score [2]: delay EAE onset and lower clinical score
